In patent US11453647B2, “Benzimidazole derivatives as adenosine receptor antagonists” (Merck Patent GmbH, priority 2017, dated 2022):

Tests used:
[1] = pharmacokinetic properties in mouse after single intravenous and oral administration; type: in vivo; details: PK data in mouse; for clearance / half-life / Cmax / Vd: female, plasma, 0.2 mg/kg; for Cmax: dose-normalized to 1 mg/kg; for Vd: read-out: Vss
Excerpt: The objective of the study was to obtain information on the pharmacokinetic properties of the compounds of the present invention in female Wistar rats/mice following single intravenous and oral administration.
Female Wistar rats/mice (n=6) received either a single intravenous (bolus) injection or an oral administration (by gavage) of the tested compound.
The concentrations of the compounds in plasma, feces were quantified using an UPLC method with tandem mass spectrometric detection (LC-MS/MS) previously developed at the ‘Institute of Drug Metabolism and Pharmacokinetics’. The LC-MS/MS system consisted of a Waters Acquity UPLC coupled to an AB Sciex mass spectrometer API 5500 Q-trap. […] The detection of the compounds was performed using multiple reaction monitoring in the positive ionization mode. Plasma samples were spiked with internal standard (20 μl) and the analyte was extracted from the matrix using tertiary-butyl methyl ether (tBME). The organic phase was evaporated to dryness under a stream of nitrogen. The residue was dissolved in acetonitrile/0.1% formic acid for LC-MS/MS analysis. Feces samples were homogenized with 4-times their volume of an ethanol/water mixture (4:1, v/v). Aliquots of the aqueous-ethanolic extracts were spiked with internal standard, diluted with acetonitrile/water (1:1, v/v) and directly injected into the LC-MS/MS system.
Pharmacokinetic parameters Cmax and tmax were taken from the observed data. […] AUC values were calculated by non-compartmental analysis using the linear up/log down method. Numerical data for mean plasma concentrations and derived pharmacokinetic parameters were rounded to 3 significant digits for presentation.

human A3 receptor = target: T1, human A3 receptor (Homo sapiens, UniProt P0DMS8); experiment: functional cAMP (HTRF) assay, recombinant CHO cells expressing human A3 receptor, forskolin, agonist IB-MECA; type: cell-based
T1 construct: expressed in transfected cells; host or cells: CHO
T1 sequence (P0DMS8 1-318): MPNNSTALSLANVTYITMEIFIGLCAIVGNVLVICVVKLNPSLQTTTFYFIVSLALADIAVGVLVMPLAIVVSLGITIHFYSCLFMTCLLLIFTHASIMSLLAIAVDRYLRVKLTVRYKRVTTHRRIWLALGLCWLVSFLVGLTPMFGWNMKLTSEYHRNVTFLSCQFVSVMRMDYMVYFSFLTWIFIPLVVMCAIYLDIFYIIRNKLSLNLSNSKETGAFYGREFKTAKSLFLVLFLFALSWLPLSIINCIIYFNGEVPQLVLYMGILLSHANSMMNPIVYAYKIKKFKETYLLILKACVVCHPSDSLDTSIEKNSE
How it was run: (§1)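 Gi-coupled readout: CHO cells expressing human A1 or A3 receptor were treated with forskolin, test compound and agonist (CPA for A1, IB-MECA for A3) for 30 min; cellular cAMP was then measured by HTRF. Data were normalized to inhibitor and DMSO controls and curve-fitted.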

human A1 receptor = target: T2, human A1 receptor (Homo sapiens, UniProt P30542); experiment: functional cAMP (HTRF) assay, recombinant CHO cells expressing human A1 receptor, forskolin, agonist CPA; type: cell-based
T2 construct: expressed in transfected cells; host or cells: CHO
T2 sequence (P30542 1-326): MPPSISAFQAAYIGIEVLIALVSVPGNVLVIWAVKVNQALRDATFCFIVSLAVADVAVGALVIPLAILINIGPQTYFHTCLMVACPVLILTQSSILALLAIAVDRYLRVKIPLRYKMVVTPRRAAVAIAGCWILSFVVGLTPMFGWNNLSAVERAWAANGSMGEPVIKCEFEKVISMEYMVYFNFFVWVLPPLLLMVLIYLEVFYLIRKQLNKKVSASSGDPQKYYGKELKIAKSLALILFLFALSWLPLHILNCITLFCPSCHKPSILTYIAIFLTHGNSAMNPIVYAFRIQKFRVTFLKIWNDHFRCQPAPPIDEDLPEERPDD
How it was run: as §1

human A2A receptor = target: T3, human A2A receptor (Homo sapiens, UniProt P29274); experiment: functional cAMP (HTRF) assay, recombinant HEK293 cells expressing human A2A receptor, agonist NECA; type: cell-based
T3 construct: expressed in transfected cells; host or cells: HEK293
T3 sequence (P29274 whole entry): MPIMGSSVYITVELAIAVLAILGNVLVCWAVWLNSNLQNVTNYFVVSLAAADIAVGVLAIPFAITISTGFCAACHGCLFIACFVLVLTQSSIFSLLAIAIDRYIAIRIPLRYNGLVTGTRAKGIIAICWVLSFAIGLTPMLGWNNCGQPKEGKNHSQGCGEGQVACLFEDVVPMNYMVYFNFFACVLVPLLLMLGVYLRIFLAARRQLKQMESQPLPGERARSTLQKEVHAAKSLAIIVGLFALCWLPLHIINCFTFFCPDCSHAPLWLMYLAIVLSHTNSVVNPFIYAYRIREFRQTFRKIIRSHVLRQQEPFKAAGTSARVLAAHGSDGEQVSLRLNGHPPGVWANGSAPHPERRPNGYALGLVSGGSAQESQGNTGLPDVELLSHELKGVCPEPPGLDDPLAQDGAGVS

A2B receptors = target: T4, A2B receptors (Homo sapiens, UniProt P29275); experiment: functional cAMP (HTRF) assay, recombinant HEK293 cells expressing human A2B receptor, agonist NECA; type: cell-based; set-up: expressed in transfected cells; host or cells: HEK293
T4 sequence (P29275 1-332): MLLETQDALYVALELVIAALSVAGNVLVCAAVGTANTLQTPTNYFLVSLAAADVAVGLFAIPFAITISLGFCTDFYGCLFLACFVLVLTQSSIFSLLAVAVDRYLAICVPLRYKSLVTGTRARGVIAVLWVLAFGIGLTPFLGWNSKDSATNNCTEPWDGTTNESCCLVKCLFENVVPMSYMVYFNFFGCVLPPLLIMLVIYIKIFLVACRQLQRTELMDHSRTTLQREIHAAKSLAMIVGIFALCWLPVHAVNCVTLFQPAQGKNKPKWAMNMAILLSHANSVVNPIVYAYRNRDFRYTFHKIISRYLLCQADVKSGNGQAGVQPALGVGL

Row | Structure (SMILES) | Feces iv ([1]; @0.08 (dose, unit not given)) | clearance [1] | half-life [1] | Cmax [1] | Vd [1] | Feces iv ([1]; @0.2 (dose, unit not given)) | IC50 (human A3 receptor) | IC50 (human A1 receptor) | IC50 (human A2A receptor) | IC50 (A2B receptors)
1 | COc1ccc(N2CCOCC2)c2nc(NC(=O)N3CCC(C)(O)CC3)[nH]c12 [compound 21, 4-hydroxy-N-(7-methoxy-4-morpholino-1H-benzimidazol-2-yl)-4-methyl-piperidine-1-carboxamide] | 38@0.08% | 12.7 mL/min/kg | 50.3 min | 2650 ng/mL | 0.508 L/kg |  |  |  |  | 
2 | COc1ccc(-c2cnn(C)c2)c2nc(NC(=O)N3CC[C@]4(CCOC4)C3)[nH]c12 [compound 115, (5S)-N-[7-methoxy-4-(1-methyl-1H-pyrazol-4-yl)-1H-1,3-benzodiazol-2-yl]-2-oxa-7-azaspiro[4.4]nonane-7-carboxamide] |  | 5.4 mL/min/kg | 59.3 min | 2450 ng/mL | 0.425 L/kg | 8.6@0.2% |  |  |  | 
3 | COc1ccc(N2CCOCC2)c2nc(NC(=O)c3ccnc(N4CCOCC4)c3)[nH]c12 [compound 23, N-(7-Methoxy-4-morpholin-4-yl-1H-benzoimidazol-2-yl)-2-morpholin-4-yl-isonicotinamide] |  | 10.3 mL/min/kg | 103 min | 733 ng/mL | 1.54 L/kg | 11@0.2% |  |  |  | 
4 | COc1ccc(-c2cnn(C)c2)c2nc(NC(=O)N3CCC(C)(O)CC3)[nH]c12 [compound 22, 4-Hydroxy-4-methyl-piperidine-1-carboxylic acid [7-methoxy-4-(1-methyl-1H-pyrazol-4-yl)-1H-benzoimidazol-2-yl]-amide] |  | 19.5 mL/min/kg | 52 min | 1320 ng/mL | 1.02 L/kg | 46@0.2% |  |  |  | 
5 | COc1ccc(-c2cnn(C)c2)c2nc(NC(=O)N3CC[C@@]4(CCOC4)C3)[nH]c12 [compound 116, (5R)-N-[7-methoxy-4-(1-methyl-1H-pyrazol-4-yl)-1H-1,3-benzodiazol-2-yl]-2-oxa-7-azaspiro[4.4]nonane-7-carboxamide] |  | 12.3 mL/min/kg | 58 min | 1130 ng/mL | 0.917 L/kg | 16.9@0.2% |  |  |  | 
6 | COc1ccc(-c2ccccc2)c2nc(NC(=O)c3c[nH]cn3)[nH]c12 [compound 253, N-(7-methoxy-4-phenyl-1H-1,3-benzodiazol-2-yl)-1H-imidazole-4-carboxamide] |  |  |  |  |  |  | < 1000 nM | < 1000 nM | < 10 nM | < 10 nM
7 | COc1ccc(-c2ccc(F)cc2)c2nc(NC(=O)c3ccc(N4C(=O)CCC4=O)cc3)[nH]c12 [compound 317, 4-(2,5-dioxopyrrolidin-1-yl)-N-[4-(4-fluorophenyl)-7-methoxy-1H-1,3-benzodiazol-2-yl]benzamide] |  |  |  |  |  |  | < 1000 nM | < 1000 nM | < 10 nM | < 10 nM
8 | COc1ccc(N2CCOCC2)c2nc(NC(=O)c3ccc(O)c(N)c3)[nH]c12 [compound 99, 3-amino-4-hydroxy-N-[7-methoxy-4-(morpholin-4-yl)-1H-1,3-benzodiazol-2-yl]benzamide] |  |  |  |  |  |  | > 1000 nM | > 1000 nM | < 10 nM | > 1000 nM
9 | COc1ccc(-c2cnn(C)c2)c2nc(NC(=O)c3ccc4ocnc4c3)[nH]c12 [compound 98, N-[7-methoxy-4-(1-methyl-1H-pyrazol-4-yl)-1H-1,3-benzodiazol-2-yl]-1,3-benzoxazole-5-carboxamide] |  |  |  |  |  |  | < 1000 nM | > 1000 nM | < 100 nM | < 1000 nM
10 | COc1ccc(-c2cnn(C)c2)c2nc(NC(=O)c3ccc4c(c3)CCO4)[nH]c12 [compound 101, N-[7-methoxy-4-(1-methyl-1H-pyrazol-4-yl)-1H-1,3-benzodiazol-2-yl]-2,3-dihydro-l-benzofuran-5-carboxamide] |  |  |  |  |  |  | < 1000 nM | < 1000 nM | < 10 nM | < 1000 nM
11 | COc1ccc(-c2cccc3[nH]ncc23)c2nc(NC(=O)N3CCC(C)(O)CC3)[nH]c12 [compound 271, 4-hydroxy-N-[4-(1H-indazol-4-yl)-7-methoxy-1H-1,3-benzodiazol-2-yl]-4-methylpiperidine-1-carboxamide] |  |  |  |  |  |  | > 1000 nM | > 1000 nM | < 100 nM | < 100 nM
12 | COCCn1cc(C(=O)Nc2nc3c(-c4cccc5c4CCN5)ccc(OC)c3[nH]2)cn1 [compound 283, N-[4-(2,3-dihydro-1H-indol-4-yl)-7-methoxy-1H-1,3-benzodiazol-2-yl]-1-(2-methoxyethyl)-1H-pyrazole-4-carboxamide] |  |  |  |  |  |  | < 1000 nM | > 1000 nM | < 100 nM | < 100 nM
13 | COc1ccc(-c2cccc(F)c2)c2nc(NC(=O)N3CCC(C)(O)CC3)[nH]c12 [compound 217, N-[4-(3-fluorophenyl)-7-methoxy-1H-1,3-benzodiazol-2-yl]-4-hydroxy-4-methylpiperidine-1-carboxamide] |  |  |  |  |  |  | > 1000 nM | < 1000 nM | < 10 nM | < 100 nM
14 | COCc1ccc(C(=O)Nc2nc3c(-c4cnn(C)c4)ccc(OC)c3[nH]2)cc1 [compound 49, N-[7-methoxy-4-(1-methyl-1H-pyrazol-4-yl)-1H-1,3-benzodiazol-2-yl]-4-(methoxymethyl)benzamide] |  |  |  |  |  |  | < 100 nM | > 1000 nM | < 10 nM | < 1000 nM
15 | COc1ccc(C2CCOCC2)c2nc(NC(=O)c3ccnc(N4CCC5(CCOC5)C4)c3)[nH]c12 (centres unmarked) [compound 119, N-[7-methoxy-4-(oxan-4-yl)-1H-1,3-benzodiazol-2-yl]-2-{2-oxa-7-azaspiro[4.4]nonan-7-yl}pyridine-4-carboxamide] |  |  |  |  |  |  | > 1000 nM | > 1000 nM | < 10 nM | > 1000 nM
16 | COc1ccc(C2=CCOC2)c2nc(NC(=O)c3ccc(C(=O)N(C)C)cc3)[nH]c12 [compound 261, N4-[4-(2,5-dihydrofuran-3-yl)-7-methoxy-1H-1,3-benzodiazol-2-yl]-N1,N1-dimethylbenzene-1,4-dicarboxamide] |  |  |  |  |  |  | < 1000 nM | > 1000 nM | < 10 nM | < 10 nM
17 | COc1ccc(C2CCOCC2)c2nc(NC(=O)c3ccc4c(c3)CCO4)[nH]c12 [compound 108, N-[7-methoxy-4-(oxan-4-yl)-1H-1,3-benzodiazol-2-yl]-2,3-dihydro-1-benzofuran-5-carboxamide] |  |  |  |  |  |  | < 1000 nM | > 1000 nM | < 10 nM | < 1000 nM
18 | COc1ccc(-c2cnn(C)c2)c2nc(NC(=O)c3ccc(CN4CCN(C)CC4)cc3)[nH]c12 [compound 168, N-[7-methoxy-4-(1-methyl-1H-pyrazol-4-yl)-1H-1,3-benzodiazol-2-yl]-4-[(4-methylpiperazin-1-yl)methyl]benzamide] |  |  |  |  |  |  | < 1000 nM | > 1000 nM | < 10 nM | > 1000 nM
